Source: patent US9795602B2, “Polycyclic-carbamoylpyridone compounds and their pharmaceutical use” (Gilead Sciences, Inc., priority 2014, dated 2017)

What was measured:
[1] = molecular target: OCT2 (Homo sapiens (Human), UniProt O15244); assay: OCT2 inhibition assay (14C-TEA uptake, OCT2-transfected MDCKII cells); format: cell-based
Description: MDCKII cells were maintained in minimal essential medium (MEM) with 1% Pen/Strep, 10% fetal bovine serum, and 0.25 mg/mL hygromycin B in an incubator set at 37° C., 90% humidity and 5% CO2. 24 hours prior to assay, media containing 5 mM sodium butyrate were added to MDCKII cells in flasks, and cells were grown to 80-90% confluence. On assay day, cells were trypsinized and resuspended in Krebs-Henseleit Buffer (KHB), pH 7.4 at […]. Cells were preincubated for 15 min in assay plate before addition of test compound or substrate.
Test compounds were serially diluted in DMSO and then spiked (2 μL) into in 0.4 mL KHB buffer containing wild-type or OCT2-transfected cells and incubated for 10 minutes. Assay was initiated with the addition of 0.1 mL of 100 μM ^14C-TEA in KHB buffer (20 μM final concentration after mixing). The concentration of TEA is based on the Km. After 10 minutes of incubation, the assay mixture was quenched with addition of 0.5 mL of ice-cold 1×PBS buffer. Samples were then centrifuged at 1000 rpm for 5 min and supernatants were removed. Wash steps were repeated four times with ice-cold PBS. Finally, the cell pellets were lysed with 0.2N NaOH and let sit at room temperature for at least 30 min to ensure complete lysis. Samples were then counted on liquid scintillation counter and dpm counts were used to perform the following calculations. The % inhibition was calculated as follows: % inhibition=[1−{[OCT2]i−[WT]ni}/{[OCT2]ni−[WT]ni}]*100 where, [OCT2]i represents the dpm count in the presence of test compound for either OCT2 cells, […] of test compound for OCT2 cells and [WT]ni represents the dpm count in the absence of test compound for wild type cells, respectively.

[2] = system: HIV-IIIb; assay: Antiviral assay in MT4 cells; format: cell-based; details: Human immunodeficiency virus 1, IIIB, MT4, 120 h, MT4 cells, HIV-IIIb, 5 days; read-out: EC50
Description: 1 mL aliquots of 2×10^6 MT4 cells are pre-infected for 1 and 3 hours respectively at 37° C. with 25 μL (MT4) or of either cell growth medium (mock-infected) or a fresh 1:250 dilution of an HIV-IIIb concentrated ABI stock (0.004 m.o.i. for MT4 cells). Infected and uninfected cells are diluted in cell growth medium and 35 μL of 2000 (for MT4) cells is added to each well of the assay plates.
(§1) Assay plates were then incubated in a 37° C. incubator. After 5 days of incubation, 25 μL of 2× concentrated CellTiter-Glo™ Reagent (catalog # G7573, Promega Biosciences, Inc., Madison, Wis.) was added to each well of the assay plate. Cell lysis was carried out by incubating at room temperature for 2-3 minutes, and then chemiluminescence was read using the Envision reader (PerkinElmer).

[3] = molecular target: PXR (NR1I2) (Homo sapiens (Human), UniProt O75469); assay: Human PXR activation assay (luciferase reporter, DPX2 cells); format: cell-based; details: human; 15 uM; DPX2 cells; % Emax relative to rifampicin, adjusted for DMSO background; read-out: PXR % inh at 15 uM (adjusted)
Description: Luciferase Reporter Gene Assay.
A stably transformed tumor cell line (DPX2) was plated on 96-well microtiter plates. […]. The number of viable cells was determined and the reporter gene activity was assessed. […]

[4] = Cytotoxicity (CC50) in MT4 cells, mock-infected; format: cell-based; details: human, mock-infected (uninfected)
Description: as §1, with “Infected and uninfected cells are diluted in cell growth medium and 35 μL of 2000 (for MT4) cells is added to each well of the assay plates. Assay” for “Assay”

[5] = system: HIV-1 E92Q/N155H; format: cell-based; details: MT2 cells; mean EC50 mutant / mean EC50 wt
Description: (§2) For the antiviral assay utilizing MT-2 cells, 50 μL of 2× test concentration of 3-fold serially diluted compound in culture medium with 10% FBS was added to each well of a 96-well plate (9 concentrations) in triplicate. MT-2 cells were infected with wild-type or mutant variants of HIV-1 for 3 hours using a volume of viral inoculum determined to produce 90% cell killing. Fifty microliters of infected cell suspension in culture medium with 10% FBS (˜1.5×10^4 cells) was then added to each well containing 50 μL of serially diluted compound. The plates with HIV-infected cultures were then incubated at 37° C. for 5 days in the presence of the tested compounds. After 5 days of incubation, 100 μL of CellTiter-Glo™ Reagent (catalog # G7571, Promega Biosciences, Inc., Madison, Wis.) was added to each well. Cell lysis was carried out by incubating at room temperature for 10 min followed by a chemiluminescence read-out.
(§3) The chemiluminescence readout from the 10-point antiviral dose response was analyzed directly by curve fitting with equation (I) to determine the EC50.
(§4) where y=Cell Survival, M=maximum cell survival enabled by drug protection, H=baseline cell survival without drug protection, n=Hill coefficient of the antiviral dose response, m=Hill coefficient of the cytotoxicity dose response, and [I]=inhibitor concentration.
(§5) EC50 values (mean±standard deviation) were calculated from at least three independent experiments performed in triplicate. The fold-change in antiviral activity of tested compounds was calculated as a ratio of the mean EC50 for each mutant virus divided by the mean EC50 of the control WT virus.

[6] = system: HIV-1 N155H/Q148R; format: cell-based; details: MT2 cells; mean EC50 mutant / mean EC50 wt
Description: as §2, §3, §4, §5

[7] = system: HIV-1 E138K/Q148K; format: cell-based; details: MT2 cells; mean EC50 mutant / mean EC50 wt
Description: as §2, §3, §4, §5

[8] = system: HIV-1 G140S/Q148R; format: cell-based; details: MT2 cells; mean EC50 mutant / mean EC50 wt
Description: as §2, §3, §4, §5

[9] = Plasma protein binding (equilibrium dialysis); format: in vitro ADME; details: human, plasma (sodium EDTA) versus buffer; 2 μM in plasma vs. buffer, 24 hours at 37° C.; read-out: % Free HP/Buffer
Description: Plasma protein binding was determined using a HTD96b equilibrium dialyzer with a plate base, stainless steel pressure plate and Teflon bock. 9 Teflon bars, labeled sequentially from A through I, were assembled with two stainless steel connecting rods. Membranes were placed between two Teflon bars, with the membrane placed approximately 2 mm below the top edge of the bar and the lower membrane edge overlapped the bottom of all wells. The membrane was soaked for about 20 minutes in water, about 20 minutes in ethanol (30/70 v/v) and rinsed with water three times to remove the ethanol. It was soaked in PBS for at least 30 minutes. Plasma in sodium EDTA (Bioreclamation or equivalent) was used. The Plasma (not pH-adjusted) was stored at −80° C. and thawed at room temperature before use. The stock solution of the compounds tested was at 200 μM in DMSO. The quench solution used was 50 nM of an internal standard in 100% ACN. To prepare a 2 μM solution of the compound tested in plasma, 5 μL of a 200 μM stock solution was added to 495 μL of blank plasma. 100 μL plasma was added with 2 μM of test compound into one side of the well. 100 μL of buffer (for plasma vs. buffer) was added into another side of the well. The 96-well plate was covered using an adhesive sealing film and incubated for 24 hours at 37° C. under slow rotation. This procedure was replicated for each compound. 50 μL of plasma sample was put into a 96 well plate, 50 μL of buffer was added. 50 μL of buffer was put into a 96 well plate. 50 μL of plasma was added. 300 μL of quench solution was added and the plate sealed and shaken for 15 minutes. The material was centrifuged for 30 minutes at 3000 RPM and ˜250 μL was transferred into a short plate. The samples were analyzed by LC/MS. The resulting data is shown in the last row of Table 3 as “% Free” which corresponds to the percentage of compound not protein bound.

[10] = system: wild-type HIV-1; assay: Antiviral assay in MT-2 cells, wild-type HIV-1; format: cell-based; details: Human immunodeficiency virus 1, 120 h; MT2 cells, wild-type HIV-1, 5 days; read-out: wt
Description: as §2, §3, §4, §5

PXR (NR1I2), sequence (O75469 whole entry): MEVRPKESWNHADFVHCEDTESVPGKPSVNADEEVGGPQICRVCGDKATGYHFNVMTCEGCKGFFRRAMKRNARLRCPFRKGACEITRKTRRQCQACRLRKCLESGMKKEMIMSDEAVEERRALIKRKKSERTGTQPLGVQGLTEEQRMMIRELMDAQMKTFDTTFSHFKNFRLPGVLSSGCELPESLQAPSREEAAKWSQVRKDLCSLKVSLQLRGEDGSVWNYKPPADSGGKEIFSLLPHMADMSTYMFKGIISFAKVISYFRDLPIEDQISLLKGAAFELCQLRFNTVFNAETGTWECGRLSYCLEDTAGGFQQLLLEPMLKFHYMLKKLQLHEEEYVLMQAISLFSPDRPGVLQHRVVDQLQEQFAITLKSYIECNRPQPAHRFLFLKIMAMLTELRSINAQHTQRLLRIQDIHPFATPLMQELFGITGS
OCT2, sequence (O15244 whole entry): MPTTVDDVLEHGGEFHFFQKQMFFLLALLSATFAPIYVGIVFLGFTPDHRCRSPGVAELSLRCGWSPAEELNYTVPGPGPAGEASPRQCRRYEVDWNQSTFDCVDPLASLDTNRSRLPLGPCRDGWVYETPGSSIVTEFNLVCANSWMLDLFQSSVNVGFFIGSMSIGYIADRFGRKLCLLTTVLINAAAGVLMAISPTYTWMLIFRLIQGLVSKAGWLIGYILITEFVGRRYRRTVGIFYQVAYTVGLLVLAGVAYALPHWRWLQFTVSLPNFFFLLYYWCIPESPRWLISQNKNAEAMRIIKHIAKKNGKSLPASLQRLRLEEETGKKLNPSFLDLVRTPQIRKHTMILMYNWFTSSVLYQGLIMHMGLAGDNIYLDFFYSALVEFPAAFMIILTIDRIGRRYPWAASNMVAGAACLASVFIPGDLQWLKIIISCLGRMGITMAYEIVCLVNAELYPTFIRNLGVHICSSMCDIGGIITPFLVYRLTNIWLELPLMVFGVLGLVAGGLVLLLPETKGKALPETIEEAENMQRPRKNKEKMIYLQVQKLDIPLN

| Compound | IC50 [1] [nM] | EC50 [2] [nM] | inhibition at 24 h, 15 µM [3] [%] | CC50 at 5 days [4] [nM] | Resistance fold shift E92Q/N155H vs. wild type [5] [fold shift] | Resistance fold shift N155H/Q148R vs. wild type [6] [fold shift] | Resistance fold shift E138K/Q148K vs. wild type [7] [fold shift] | Resistance fold shift G140S/Q148R vs. wild type [8] [fold shift] | fraction unbound at 24 h, 2 µM [9] | EC50 [10] [nM] |
| --- | --- | --- | --- | --- | --- | --- | --- | --- | --- | --- |
| CCN1C(=O)c2c(O)c(=O)c(C(=O)NCc3c(F)cc(F)cc3F)cn2[C@@H]2CCOC[C@H]21 [Compound 12] | 6400 | 6.26 | 18 | 36500 | – | – | – | – | – | – |
| O=C(NCc1c(F)cc(F)cc1F)c1cn2c(c(O)c1=O)C(=O)N(CC(F)(F)F)[C@H]1COCC[C@H]12 [Compound 31] | 10000 | 2.62 | 1 | 52500 | – | – | – | – | – | – |
| CCN1C(=O)c2c(O)c(=O)c(C(=O)NCc3c(F)cc(F)cc3F)cn2[C@H]2CCOC[C@H]21 [Compound 33] | – | 2.84 | 12 | 31100 | 0.9 | 2.2 | 5.9 | 2.5 | 0.056 | 2.5 |
| CCN1C(=O)c2c(O)c(=O)c(C(=O)NCc3ccc(F)cc3F)cn2[C@H]2CCOC[C@H]21 [Compound 41] | – | 2.88 | 21 | 27400 | 2.1 | 1.8 | 3.5 | 2.9 | 0.057 | 2 |
| CCN1C(=O)c2c(O)c(=O)c(C(=O)NCc3c(F)cc(F)cc3F)cn2[C@H]2COC[C@H]21 [Compound 44] | – | 5.68 | 32 | 38000 | 2.3 | 17.7 | 23.8 | 5.9 | 0.068 | 7.8 |
